From patent US20090069271A1, “WOOD TREATMENT” (priority 2005, published 2009)
Where two headings read alike, the source gives them in different places.

Tests used:
[1] = aqueous dioxane, tri-(dicyclohexylcarbinyl) borate = 1, cited from earlier work
[2] = base catalysed hydrolysis, 60% aqueous dioxane at 21°; cited from earlier work
[3] = Pseudo three-dimensional hydrolysis test, sample layered on distilled water; assay type: physicochemical; conditions: sample layered on distilled water in a test tube; 20 mls sample layered on 10 mls distilled water in 19 mm test tube
Procedure: A pseudo three-dimensional test was made by taking 10 mls of distilled water and placing in a 19 mm diameter test tube. 20 mls of sample was then layered on the water; the rate of hydrolysis was then measured. This was done by taking 2 ml samples from the test tube over time, refluxing and titrating the 2 ml samples to get the concentration. The test was with n-butyl di-n-propyl borate, which should have similar kinetic properties to tri-n-propyl borate and tri-n-butyl borate. The test was also done with tri-n-octyl borate.
It can be seen that there is an exponential difference in the half-life when changing the conditions of hydrolysis. For the commercial method of which the patent covers, the hydrolysis rate is slow enough to give consistent uptake of product in the timber and provide stable solution concentration.

Structure (SMILES)	Relative rate of hydrolysis [1]	further results
c1ccc([C@H]2CCCC[C@H]2OB(O[C@@H]2CCCC[C@@H]2c2ccccc2)O[C@@H]2CCCC[C@@H]2c2ccccc2)cc1 (relative stereo) [Tri-(cis-2-phenylcyclohexyl) borate]	28.2	
c1ccc([C@@H]2CCCC[C@H]2OB(O[C@@H]2CCCC[C@H]2c2ccccc2)O[C@@H]2CCCC[C@H]2c2ccccc2)cc1 (relative stereo) [Tri-(trans-2-phenylcylohexyl) borate]	40.0	
CCCCCCC(C)OB(OC(C)CCCCCC)OC(C)CCCCCC (centres unmarked) [Tri-2-octyl borate]	4.33 × 10^3	
CCCCC(CC)OB(OC(CC)CCCC)OC(CC)CCCC (centres unmarked) [Tri-3-heptyl borate]	415	
CCC(CC)OB(OC(CC)CC)OC(CC)CC [Tri-3-pentyl borate]	483	
C#CC1(OB(OC2(C#C)CCCCC2)OC2(C#C)CCCCC2)CCCCC1 [Tri-(1-ethynylcyclohexyl) borate]	4.29 × 10^4	
CC(C)CC(C)CC(CC(C)C)OB(OC(CC(C)C)CC(C)CC(C)C)OC(CC(C)C)CC(C)CC(C)C (centres unmarked) [Tri-(2,6,8-trimethyl-4-nonyl) borate]	4.83	
C1CCC(OB(OC2CCCCC2)OC2CCCCC2)CC1 [Tri-(2-cyclohexyl) borate]	3.67	
CCCCC(CC)COB(OCC(CC)CCCC)OCC(CC)CCCC (centres unmarked) [Tri-(2-ethylhexyl) borate]	2.77 × 10^3	
c1ccc(C2CCCCC2OB(OC2CCCCC2c2ccccc2)OC2CCCCC2c2ccccc2)cc1 (centres unmarked) [Tri-(2-phenylcyclohexyl) borate]	34.1	
C1CCC(C(OB(OC(C2CCCCC2)C2CCCCC2)OC(C2CCCCC2)C2CCCCC2)C2CCCCC2)CC1 [Tri-(dicyclohexylcarbinyl) borate]	1	
CC(C)CC(CC(C)C)OB(OC(CC(C)C)CC(C)C)OC(CC(C)C)CC(C)C [Tri-(diisobutylcarbinyl) borate]	5.86	
CC(C)CC(C)OB(OC(C)CC(C)C)OC(C)CC(C)C (centres unmarked) [Tri-(methylisobutylcarbinyl) borate]	2430	
CCCC1OB(OCC(CC)C(CCC)OB2OCC(CC)C(CCC)O2)OCC1CC (centres unmarked) [Tri-(octylene glycol) biborate]	3.92 × 10^5	
CCCCCCOB(OCCCCCC)OCCCCCC [Tri-hexyl borate]	2.02 × 10^5	Half-life [2]: 2.9 s
CCCCCOB(OCCCCC)OCCCCC [Tri-n-amyl borate]	5.87 × 10^5	Half-life [2]: 1.0 s
CCCCOB(OCCCC)OCCCC [Tri-n-butyl borate]		Half-life [3]: 89 h; Half-life(sec.) [2]: Too fast to measure
CCCCCCCCCCCCOB(OCCCCCCCCCCCC)OCCCCCCCCCCCC [Tri-n-dodecyl borate]	2.77 × 10^4	Relative rate of hydrolysis ([1]; listed as Tri-dodecyl borate): 2.77×10^4; Half-life [2]: 21.3 s
CCCCCCCCOB(OCCCCCCCC)OCCCCCCCC [Tri-n-octyl borate]	3.67 × 10^4	Half-life [2]: 16.0 s
CCCOB(OCCC)OCCC [Tri-n-propyl borate]		Half-life(sec.) [2]: Too fast to measure
CCC(C)OB(OC(C)CC)OC(C)CC (centres unmarked) [Tri-s-butyl borate]	1.68 × 10^5	
CCC(C)(C)OB(OC(C)(C)CC)OC(C)(C)CC [Tri-t-amyl borate]	449	
CC(C)(C)OB(OC(C)(C)C)OC(C)(C)C [Tri-t-butyl borate]	1370	
CCOB(OCC)OCC [Triethyl borate]		Half-life(sec.) [2]: Too fast to measure
COB(OC)OC [Trimethyl borate]		Half-life(sec.) [2]: Too fast to measure
CCCCCCCC/C=C\CCCCCCCCOB(OCCCCCCCC/C=C\CCCCCCCC)OCCCCCCCC/C=C\CCCCCCCC [Trioleyl borate]	3.57 × 10^4	
CCCCCCCCCCCCCCCCCCOB(OCCCCCCCCCCCCCCCCCC)OCCCCCCCCCCCCCCCCCC [Tristearyl borate]	2.71 × 10^4	Half-life [2]: 21.7 s
CCCCOB(OCCC)OCCC [n-butyl di-n-propyl borate]		Half-life [3]: 6.5 h
